In the supplement of paper PMC11061612:

Key:
Experiment in all cases: Bliss excess, mean over the matrix (fraction); higher = more synergy
[1] = system: HO-1-N-1 (Oral Cavity Carcinoma)
Method in brief: (§1)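 After 24 hours at 37°C and 5% CO2 in 1536-well plates, cells in DMEM/F12 or RPMI plus 10% FBS received two-drug dose matrices for 72 hours. Viability came from CellTiter-Glo 2.0 luminescence and was scaled as inhibition, anchored at 0 by vehicle wells and at 1 by blank wells. Combination Emax is taken as the second-highest inhibition in the matrix, and Bliss excess as the observed combination effect less EA + EB − EA·EB, with EA and EB the single-agent effects.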

[2] = system: Hs-578-T (Breast Carcinoma)
Method in brief: as §1

[3] = system: NCI-H2085 (Non-Small Cell Lung Carcinoma)
Method in brief: as §1

[4] = system: TE-15 (Esophageal Squamous Cell Carcinoma)
Method in brief: as §1

[5] = system: CAL-148 (Breast Carcinoma)
Method in brief: as §1

[6] = system: HCC-78 (Lung Adenocarcinoma)
Method in brief: as §1

[7] = system: UM-UC-3 (Bladder Carcinoma)
Method in brief: as §1

[8] = system: NCI-H82 (Small Cell Lung Carcinoma)
Method in brief: as §1

[9] = system: LB831-BLC (Bladder Carcinoma)
Method in brief: as §1

[10] = system: DoTc2-4510 (Cervical Carcinoma)
Method in brief: as §1

[11] = system: CCRF-CEM (T-Lymphoblastic Leukemia)
Method in brief: as §1

[12] = system: RO82-W-1 (Thyroid Gland Carcinoma)
Method in brief: as §1

[13] = system: ME-1 (Acute Myeloid Leukemia)
Method in brief: as §1

[14] = system: Ramos-2G6-4C10 (Burkitt's Lymphoma)
Method in brief: as §1

[15] = system: LS-180 (Colorectal Carcinoma)
Method in brief: as §1

[16] = system: CaR-1 (Colorectal Carcinoma)
Method in brief: as §1

[17] = system: KELLY (Neuroblastoma)
Method in brief: as §1

[18] = system: TE-9 (Esophageal Squamous Cell Carcinoma)
Method in brief: as §1

[19] = system: Calu-3 (Lung Adenocarcinoma)
Method in brief: as §1

[20] = system: NB10 (Neuroblastoma)
Method in brief: as §1

SMILES	Bliss excess [1]	Bliss excess [2]	Bliss excess [3]	Bliss excess [4]	Bliss excess [5]	Bliss excess [6]	Bliss excess [7]	Bliss excess [8]	Bliss excess [9]	Bliss excess [10]	Bliss excess [11]	Bliss excess [12]	Bliss excess [13]	Bliss excess [14]	Bliss excess [15]	Bliss excess [16]	Bliss excess [17]	Bliss excess [18]	Bliss excess [19]	Bliss excess [20]
O=C(c1cc(Cc2n[nH]c(=O)c3ccccc23)ccc1F)N1CCN(C(=O)C2CC2)CC1 [Olaparib] + CN(CC[C@H](CSC1=CC=CC=C1)NC2=C(C=C(C=C2)S(=O)(=O)NC(=O)C3=CC=C(C=C3)N4CCC(CC4)[C@H](C5=CC=CC=C5C6=CC=C(C=C6)Cl)O)S(=O)(=O)C(F)(F)F)CCO [AZD4320] (first compound max 10 µM, 7x7, partner max 1 µM)	0.0106	-0.0625	-0.0134	-0.0494	0.0335	-0.016	0.0086	-0.0532	-0.0076	0.03	0.0247	0.0031	-0.0216	-0.0184	-0.0552	-0.054	0.134	-0.003	-0.027	-0.0471
Cc1c2c(nn1C)CSCc1cc(n(C)n1)CSc1cc(c3ccccc3c1)OCCCc1c(C(=O)O)n(C)c3c-2c(Cl)ccc13 [AZD5991] + CS(=O)(=O)CCNCc1ccc(-c2ccc3ncnc(Nc4ccc(OCc5cccc(F)c5)c(Cl)c4)c3c2)o1 [Lapatinib] (first compound max 1 µM, 7x7, partner max 10 µM)	0.0972	-0.0984	0.0494	-0.012	0.0041	-0.0167	-0.001	-0.0161	-0.0215	-0.0004	-0.0676	-0.0357	-0.0089	0.0153	0.0651	0.0071	0.0879	-0.0218	0.0244	-0.0197
N#Cc1cnc(Nc2cc(NC[C@H]3CNCCO3)c(C(F)(F)F)cn2)cn1 [SRA737] + O=c1[nH]cc(F)c(=O)[nH]1 [5-Fluorouracil] (first compound max 10 µM, 7x7, partner max 20 µM)	0.0623	0.0056	-0.0495	-0.0033	0.0099	0.0929	-0.0007	-0.111	0.0113	-0.0201	0.0179	-0.0283	-0.0532	-0.0068	-0.053	-0.0495	0.0153	0.0599	-0.0137	-0.0036
C[C@@H]1COCCN1c1cc(C2([S@](C)(=N)=O)CC2)nc(-c2ccnc3[nH]ccc23)n1 [AZD6738] + C1CC(C1)(C(=O)[O-])C(=O)[O-].N.N.[Pt+2] [Carboplatin] (first compound max 10 µM, 7x7, partner max 10 µM)	0.0156	-0.0559	-0.067	-0.0208	-0.11	-0.0401	-0.0213	-0.117	-0.051	-0.0562	-0.0161	-0.0333	-0.0565	-0.0421	0.0068	-0.0464	-0.0516	-0.0215	-0.0397	-0.0562
Cc1c2c(nn1C)CSCc1cc(n(C)n1)CSc1cc(c3ccccc3c1)OCCCc1c(C(=O)O)n(C)c3c-2c(Cl)ccc13 [AZD5991] + Nc1ccn([C@@H]2O[C@H](CO)[C@@H](O)C2(F)F)c(=O)n1 [Gemcitabine] (first compound max 1 µM, 7x7, partner max 0.3 µM)	-0.0071	0.0298	-0.021	0	0.122	-0.0102	-0.0402	0.003	-0.0443	-0.0282	-0.0164	-0.0453	-0.0612	0.0162	-0.061	-0.0383	-0.0253	-0.0201	-0.0191	-0.0006
Cc1cc2ncnn2cc1Nc1ncc2c(n1)n(C1CCOCC1)c(=O)n2C [AZD7648] + COc1cc([C@@H]2c3cc4c(cc3[C@@H](O[C@@H]3O[C@@H]5CO[C@@H](C)O[C@H]5[C@H](O)[C@H]3O)[C@H]3COC(=O)[C@H]23)OCO4)cc(OC)c1O [Etoposide] (first compound max 10 µM, 7x7, partner max 10 µM)	0.23	0.0777	0.0734	0.0823	0.163	0.0695	0.105	0.0583	0.103	0.116	0.104	0.0049	-0.0301	0.0563	0.0183	0.0253	0.0734	0.0158	0.1	0.0154
CN(CCO)CC[C@H](CSc1ccccc1)Nc1ccc(S(=O)(=O)NC(=O)c2ccc(N3CCC([C@@H](O)c4ccccc4-c4ccc(Cl)cc4)CC3)cc2)cc1S(=O)(=O)C(F)(F)F [AZD4320] + CS(=O)(=O)CCNCc1ccc(-c2ccc3ncnc(Nc4ccc(OCc5cccc(F)c5)c(Cl)c4)c3c2)o1 [Lapatinib] (first compound max 1 µM, 7x7, partner max 10 µM)	0.0439	0.0188	0.019	-0.0004	-0.0411	-0.0248	0.0099	0.0747	0.0245	0.051	0.0305	0.0002	0.0937	0.117	-0.0521	-0.0122	0.0272	0.0137	0.0224	-0.0204
Cc1nc(-c2cn3c(n2)-c2ccc(-c4cnn(C(C)(C)C(N)=O)c4)cc2OCC3)n(C(C)C)n1 [Taselisib] + O=C(Nc1ccc2[nH]nc(-c3ccncc3)c2c1)[C@@H]1CCN(CC(=O)N2CCN(c3ccc(-c4ncccn4)cc3)CC2)C1 [SCH772984] (first compound max 10 µM, 7x7, partner max 5 µM)	0.0562	0.0748	-0.0174	-0.0011	0.103	0.0886	0.0679	-0.0251	-0.0305	0.0435	0.124	0.0009	0.0001	0.008	0.0776	0.0708	0.135	0.0303	-0.0287	0.0751
O=C(c1cc(Cc2n[nH]c(=O)c3ccccc23)ccc1F)N1CCN(C(=O)C2CC2)CC1 [Olaparib] + Cc1c2c(nn1C)CSCc1cc(n(C)n1)CSc1cc(c3ccccc3c1)OCCCc1c(C(=O)O)n(C)c3c-2c(Cl)ccc13 [AZD5991] (first compound max 10 µM, 7x7, partner max 1 µM)	0.0456	-0.0621	-0.062	-0.0392	-0.005	-0.0244	-0.0182	-0.0755	-0.0371	-0.0397	0.0053	-0.0375	-0.0085	0.0249	-0.0207	-0.0322	0.0826	-0.0397	-0.0453	-0.0166
C[C@@H](Nc1cc(F)cc(F)c1)c1cc(C(=O)N(C)C)cc2c(=O)cc(N3CCOCC3)oc12 [AZD8186] + C1CN(CCC1(C(=O)N[C@@H](CCO)C2=CC=C(C=C2)Cl)N)C3=NC=NC4=C3C=CN4 [AZD5363] (first compound max 10 µM, 7x7, partner max 10 µM)	0.0627	-0.0815	-0.045	0.0126	-0.0019	0.0408	0.0454	-0.0759	-0.0398	-0.0017	0.007	-0.0132	-0.052	-0.0898	-0.0425	0.0054	-0.0246	-0.0405	0.0001	-0.0398
N#Cc1cnc(Nc2cc(NC[C@H]3CNCCO3)c(C(F)(F)F)cn2)cn1 [SRA737] + C=CCn1c(=O)c2cnc(Nc3ccc(N4CCN(C)CC4)cc3)nc2n1-c1cccc(C(C)(C)O)n1 [AZD1775] (first compound max 10 µM, partner max 1 µM)	0.0976	0.0771	–	0.0209	0.184	0.0611	0.0749	0.0115	-0.0446	0.074	0.0688	-0.0441	0.0456	0.119	0.0475	-0.0239	0.0387	0.0457	0.0228	0.105
O=C(c1cc(Cc2n[nH]c(=O)c3ccccc23)ccc1F)N1CCN(C(=O)C2CC2)CC1 [Olaparib] + COc1nnc2ccc(N3CCC(c4ccc(OCCN5CCN(C)C(=O)[C@H]5C)cc4)CC3)nn12 [AZD5153] (first compound max 10 µM, 7x7, partner max 1 µM)	-0.02	-0.0551	-0.0423	-0.0671	-0.0366	-0.0169	-0.0014	-0.0326	-0.0889	-0.0755	0.0457	-0.0002	0.0123	-0.0473	-0.0495	-0.105	-0.042	-0.0663	-0.0339	-0.0558
CS(=O)(=O)CCNCc1ccc(-c2ccc3ncnc(Nc4ccc(OCc5cccc(F)c5)c(Cl)c4)c3c2)o1 [Lapatinib] + Cn1cnc2c(F)c(Nc3ccc(Br)cc3Cl)c(C(=O)NOCCO)cc21 [Selumetinib] (first compound max 10 µM, 7x7, partner max 10 µM)	0.145	-0.0311	-0.0366	-0.0388	0.0085	-0.0196	0.0547	-0.0082	-0.0344	-0.0459	-0.0051	-0.0093	0.0694	0.0139	0.0947	0.0337	-0.0152	-0.0341	-0.009	0.0376
N#Cc1cnc(Nc2cc(NC[C@H]3CNCCO3)c(C(F)(F)F)cn2)cn1 [SRA737] + CCc1c2c(nc3ccc(O)cc13)-c1cc3c(c(=O)n1C2)COC(=O)[C@]3(O)CC [SN-38] (first compound max 10 µM, 7x7, partner max 0.3 µM)	-0.0022	0.114	-0.0053	-0.0928	-0.0602	-0.0447	-0.0017	0.0325	0.0497	0.0093	-0.034	-0.04	0.0352	0.135	–	-0.0711	-0.0429	-0.0181	-0.0477	-0.141
